Experimental data from patent US20080009545A1, “Anticancer agents” (The Ohio State University Research Foundation, priority 2006, published 2008).

Experiments:
Bcl-xL/Bak interactions = molecular target: T1, Bcl-xL/Bak interactions (Homo sapiens, UniProt Q07817); assay: Co-immunoprecipitation of Bcl-xL/Bak in PC-3 cells; type: cell-based
T1 construct: the endogenous counterpart in PC-3 cells; endogenous in cells; host or cells: PC-3 cells
Protocol: (§1) Immunoblotting—Cells were seeded in 10% FBS-containing RPMI-1640 medium for 24 h and treated with various agents as aforementioned. After individual treatments for 24 h, the adherent cells in T-25 or T-75 flasks were scraped, combined with the medium, and centrifuged at 2200 rpm for 10 min. The […] were recovered, placed on ice, and triturated with 20 to 50 μL of a chilled lysis buffer (M-PER Mammalian Protein Extraction Reagent; Pierce, Rockford, Ill.), to which was added 1% protease inhibitor cocktail (set III; EMD Biosciences, Inc., San Diego, Calif.). After a 30-min incubation on ice, the mixture was centrifuged at 16,100×g for 3 min. […]
Co-immunoprecipitation—PC3 cells treated with 40 μM α-tocopheryl succinate or 10 μM TS-1 for 24 h were scraped off the flask, transferred into centrifuge tubes, and centrifuged at 2200 rpm for 10 min to pellet the cells. […] Equal amounts of proteins from these lysates, as determined by the Bradford assay, were mixed with anti-Bcl-2 or anti Bcl-XL antibodies in an orbital shaker at 23° C. for 2 h, followed by 100 μL of protein A-agarose bead slurry at 4° C. for 12 h. […]

Bcl-2/Bak interactions = molecular target: T2, Bcl-2/Bak interactions (Homo sapiens, UniProt P10415); assay: Co-immunoprecipitation of Bcl-2/Bak in PC-3 cells; type: cell-based
T2 construct: endogenous in cells; host or cells: PC-3 cells
Protocol: as §1
The pellet was resuspended in ice-cold 0.5 mL of radioimmunoprecipitation assay buffer (50 mM Tris-HCl, pH 7.4, 1% Nonidet P-40, 0.25% sodium deoxycholate, 150 mM NaCl, 1 mM EDTA, and 1% protease inhibitor cocktail) and gently mixed on an orbital shaker at 4° C. for 15 min, followed by centrifugation at 14,000×g for 15 min to yield cell lysates. […] Equal amounts of proteins from these lysates, as determined by the Bradford assay, were mixed with anti-Bcl-2 or anti Bcl-XL antibodies in an orbital shaker at 23° C. for 2 h, followed by 100 μL of protein A-agarose bead slurry at 4° C. for 12 h. […]

PrEC cells = assay: MTT cell viability, normal prostate epithelial cells (PrECs); type: cell-based, human; settings: 24 h, Prostate Epithelial Cell Basal Medium with growth supplements
Protocol: (§2) Cell culture—LNCaP androgen-dependent (p53+/+) and PC-3 androgen-nonresponsive (P53−/−) prostate cancer cells were obtained from the American Type Culture Collection (Manassas, Va.). The preparation of the stable Bcl-xL-overexpressing LNCaP clone B3 (LNCaP/B3) was previously described (18). PC-3, LNCaP, and LNCaP/B3 cells were maintained in RPMI 1640 supplemented with 10% fetal bovine serum (FBS) at 37° C. in a humidified incubator containing 5% carbon dioxide. Normal human prostate epithelial (PrEC) cells were purchased from Cambrex Bio Science Walkersville, Inc. (East Tutherford, N.J.). Cells were maintained in Prostate Epithelial Cell Medium with growth supplements at 37° C. in a humidified incubator containing 5% carbon dioxide. The recommended seeding density for subculture is 2,500 cells/cm^2. It takes 6-9 days from subculture to attain confluency.
Cell viability analysis—The effect of individual test agents on cell viability was assessed by using the MTT assay in 6 to 12 replicates. PC3, LNCaP, and B3-LNCaP cells were seeded and incubated in poly-p-lysine-coated, 96-well, flat-bottomed plates in RPMI 1640 medium supplemented with 10% FBS medium for 24 hours. PrEC cells were seeded at the recommend density in 96-well, flat-bottomed plates in Prostate Epithelial Cell Medium with growth supplements for 3 days. All cells were exposed to various concentrations of test agents dissolved in ethanol (for α-tocopherol, α-tocopheryl succinate, and TS-3) or DMSO (all other test agents used) with a final concentration of 0.1% in serum-free RPMI 1640 medium for PC3, LNCaP, and LNCaP/B3 cells or in Prostate Epithelial Cell Basal Medium with growth supplements for PrEC cells. Controls received DMSO or ethanol vehicle at a concentration equal to that in drug-treated cells. The medium was removed, replaced by 200 μL of 0.5 mM MTT in 10% FBS-containing RPMI 1640 medium, and cells were incubated in the CO2 incubator at 37° C. for 2 h. […] Absorbance at 570 nm was determined on a plate reader.

PC-3 cells [1] = assay: Apoptosis detection in PC-3 cells (cell death ELISA, cytochrome c release, PARP cleavage); type: cell-based, human; settings: 24 h, serum-free medium
Protocol: Apoptosis detection by ELISA—Induction of apoptosis was assessed with a Cell Death Detection ELISA kit (Roche Diagnostics) by following the manufacturer's instruction. This test is based on the quantitative determination of cytoplasmic histone-associated DNA fragments in the form of mononucleosomes and oligonucleosomes after induced apoptotic death. In brief, 5×10^6 cells were cultured in a T-25 flask in 10% FBS-containing medium for 24 h, and were treated with the test agents at various concentrations in serum-free medium for 24 hours. Both floating and adherent cells were collected; cell lysates equivalent to 5×10^5 cells were used in the ELISA.
Western blot analysis of cytochrome c release into the cytoplasm—Cytosolic-specific, mitochondria-free lysates were prepared according to an established procedure (18). In brief, after individual treatments for 24 h, both the incubation medium and adherent cells in T-75 flasks were collected and centrifuged at 600×g for 5 min. […] Bands were transferred to nitrocellulose membranes and analyzed by immunoblotting with anti-cytochrome c antibodies as described below. […]

Bcl-xL = Bcl-xL (Homo sapiens, UniProt Q07817); assay: Competitive fluorescence polarization assay, Bak BH3 peptide binding to Bcl-xL; settings: for activity in inhibiting Bak peptide-Bcl-xL binding: even at 100 μM
Protocol: Competitive fluorescence polarization assay—The binding affinity of the test agent to Bcl-XL was analyzed by a competitive fluorescence polarization assay in which the ability of the agent to displace the binding of a Bak BH3-domain peptide to either Bcl-2 or Bcl-XL was determined. Flu-BakBH3, a Bak-BH3 peptide labeled at the NH2 terminus with fluorescein, was purchased from Genemed Synthesis (San Francisco, Calif.). COOH-terminal-truncated, His-tagged Bcl-XL was purchased from EMD Biosciences (San Diego, Calif.) and soluble glutathione S-transferase-fused Bcl-2 was obtained from Santa Cruz Biotechnology. The binding analysis was carried out in a dual-path length quartz cell with readings taken at […] at room temperature using a luminescence spectrometer according to an established procedure (19).
(§3) Determination of IC50 values—Data from cell viability and fluorescence polarization assays were analyzed by using the CalcuSyn software (Biosoft, Ferguson, Mo.) to determine IC50 values, in which the calculation was based on the medium-effect equation [i.e., log(fa/fu)=m log(D)−m log(Dm), where fa and fu denote fraction affected and unaffected, respectively; m represents the Hill-type coefficient signifying the sigmoidicity of the dose-effect curve; and D and Dm are the dose used and IC50, respectively.

LNCaP cells = assay: MTT cell viability, LNCaP cells; type: cell-based, human; settings: for activity in suppressing cell viability: even at 100 μM, 24 h
Protocol: as §2
(§4) Cell viability analysis—The effect of individual test agents on cell viability was assessed by using the MTT assay in 6 to 12 replicates. PC3, LNCaP, and B3-LNCaP cells were seeded and incubated in poly-p-lysine-coated, 96-well, flat-bottomed plates in RPMI 1640 medium supplemented with 10% FBS medium for 24 hours. PrEC cells were seeded at the recommend density in 96-well, flat-bottomed plates in Prostate Epithelial Cell Medium with growth supplements for 3 days. […] Absorbance at 570 nm was determined on a plate reader.
as §3

PC-3 cells [2] = assay: MTT cell viability, PC-3 cells; type: cell-based, human; settings: for activity in suppressing cell viability: even at 100 μM, 24 h
Protocol: as §2, §4, §3

[3] = test system: Bcl-xL, Bcl-2, Bax, Bak, Bad, and Bid; assay: Expression of Bcl-2 family members in PC-3 cells (Western blot); type: cell-based, human; settings: 24 h, serum-free RPMI 1640
Protocol: (§5) Immunoblotting—Cells were seeded in 10% FBS-containing RPMI-1640 medium for 24 h and treated with various agents as aforementioned. After individual treatments for 24 h, the adherent cells in T-25 or T-75 flasks were scraped, combined with the medium, and centrifuged at 2200 rpm for 10 min. The […] were recovered, placed on ice, and triturated with 20 to 50 μL of a chilled lysis buffer (M-PER Mammalian Protein Extraction Reagent; Pierce, Rockford, Ill.), to which was added 1% protease inhibitor cocktail (set III; EMD Biosciences, Inc., San Diego, Calif.). After a 30-min incubation on ice, the mixture was centrifuged at 16,100×g for 3 min. Two μL of the suspension was taken for protein analysis using the Bradford assay kit (Bio-Rad, Hercules, Calif.); to the remaining solution was added the same volume of 2× SDS-polyacryl-amide gel electrophoresis sample loading buffer (100 mM Tris-HCl, pH 6.8, 4% SDS, 5% β-mercaptoethanol, 20% glycerol, and 0.1% bromphenol blue). The mixture was boiled for 10 min. Equal amounts of proteins were loaded onto 8-12% SDS-polyacrylamide gels. After electrophoresis, protein bands were transferred to nitrocellulose membranes in a semidry transfer cell. […]

LNCaP/B3 cells = assay: MTT cell viability, Bcl-xL-overexpressing LNCaP (LNCaP/B3) cells; type: cell-based, human; settings: LNCaP/B3 vs LNCaP cells, 24-h exposure; to a degree greater than that of PC-3 cells
Protocol: as §2, §4

caspase-9 = assay: Caspase-9 activation in PC-3 cells (Western blot); type: cell-based, human; settings: 24 h
Protocol: as §5

Bcl-2 = Bcl-2 (Homo sapiens, UniProt P10415); assay: Competitive fluorescence polarization assay, Bak BH3 peptide binding to Bcl-2; settings: Flu-BakBH3, read-out: IC50, disruption of BH3 domain-mediated interactions (Bak BH3 peptide) with Bcl-2
Protocol: Competitive fluorescence polarization assay—The binding affinity of the test agent to Bcl-XL was analyzed by a competitive fluorescence polarization assay in which the ability of the agent to displace the binding of a Bak BH3-domain peptide to either Bcl-2 or Bcl-XL was determined. Flu-BakBH3, a Bak-BH3 peptide labeled at the NH2 terminus with fluorescein, was purchased from Genemed Synthesis (San Francisco, Calif.). COOH-terminal-truncated, His-tagged Bcl-XL was purchased from EMD Biosciences (San Diego, Calif.) and soluble glutathione S-transferase-fused Bcl-2 was obtained from Santa Cruz Biotechnology. […] Determination of IC50 values—Data from cell viability and fluorescence polarization assays were analyzed by using the CalcuSyn software (Biosoft, Ferguson, Mo.) to determine IC50 values, in which the calculation was based on the medium-effect equation [i.e., log(fa/fu)=m log(D)−m log(Dm), where fa and fu denote fraction affected and unaffected, respectively; m represents the Hill-type coefficient signifying the sigmoidicity of the dose-effect curve; and D and Dm are the dose used and IC50, respectively.

[4] = 24-h exposure, serum-free RPMI 1640, MTT, read-out: IC50, proliferation inhibition

Chain of Bcl-xL (Q07817 1-212 limits assumed): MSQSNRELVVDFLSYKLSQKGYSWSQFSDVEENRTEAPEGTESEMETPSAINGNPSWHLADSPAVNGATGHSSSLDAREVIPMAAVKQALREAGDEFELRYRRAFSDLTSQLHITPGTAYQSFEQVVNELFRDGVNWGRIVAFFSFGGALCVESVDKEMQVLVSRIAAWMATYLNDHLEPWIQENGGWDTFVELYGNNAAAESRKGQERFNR
T1 sequence (Q07817 whole entry): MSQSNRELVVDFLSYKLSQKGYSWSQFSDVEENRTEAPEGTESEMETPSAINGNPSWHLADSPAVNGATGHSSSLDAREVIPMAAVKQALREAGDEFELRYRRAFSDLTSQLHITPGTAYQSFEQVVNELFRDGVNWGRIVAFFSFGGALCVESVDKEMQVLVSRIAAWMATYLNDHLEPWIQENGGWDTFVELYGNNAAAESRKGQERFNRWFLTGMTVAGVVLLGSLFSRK
T2 sequence (P10415 whole entry): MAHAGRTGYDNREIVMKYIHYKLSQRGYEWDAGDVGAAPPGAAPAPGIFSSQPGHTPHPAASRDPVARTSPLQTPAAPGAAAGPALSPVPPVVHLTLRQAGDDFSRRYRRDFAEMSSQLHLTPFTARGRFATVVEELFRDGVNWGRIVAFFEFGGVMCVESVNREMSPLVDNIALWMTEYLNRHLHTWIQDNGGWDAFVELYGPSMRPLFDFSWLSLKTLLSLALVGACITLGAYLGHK
Chain of Bcl-2 (P10415 whole entry, species assumed, the tested form may be a part): as the sequence (P10415 whole entry) above

Cc1c(C)c2c(c(C)c1OC(=O)CCC(=O)O)CCC(C)(CCCC(C)CCCC(C)C)O2 (stereo not shown) [TS-1, succinic acid mono-[2-(4,8-dimethyl-nonyl)-2,5,7,8-tetramethyl-chroman-6-yl]ester]
intracellular binding of Bak to Bcl-xL (Bcl-xL/Bak interactions; 10 μM): abolished | intracellular binding of Bak to Bcl-2 (Bcl-2/Bak interactions; 10 μM): abolished | antiproliferative effect on normal prostate epithelial cells (PrEC cells): resistant | apoptotic death (PC-3 cells [1]): evidenced by DNA fragmentation, cytochrome c release, and PARP cleavage | difference in IC50 between TS-1 and α-tocopheryl succinate in blocking Bak peptide binding to Bcl-xL (Bcl-xL): 3 fold

Cc1c(C)c2c(c(C)c1OC(=O)CCC(=O)O)CCC(C)(C)O2 [TS-3, succinic acid mono-(2,2,5,7,8-pentamethyl-chroman-6-yl)ester]
activity in suppressing cell viability (LNCaP cells): lacked appreciable activity | activity in suppressing cell viability (PC-3 cells [2]): lacked appreciable activity | Bcl-xL binding affinity (effect of structural change) (Bcl-xL): abrogated the binding affinity | activity in inhibiting Bak peptide-Bcl-xL binding (Bcl-xL): lacked appreciable activity

Cc1c(C)c2c(c(C)c1O)CCC(C)(CCCC(C)CCCC(C)C)O2 (stereo not shown) [TS-4, 2-(4,8-dimethyl-nonyl)-2,5,7,8-tetramethyl-chroman-6-ol]
activity in suppressing cell viability (LNCaP cells): lacked appreciable activity | activity in suppressing cell viability (PC-3 cells [2]): lacked appreciable activity | activity in inhibiting Bak peptide-Bcl-xL binding (Bcl-xL): lacked appreciable activity

Cc1c(C)c2c(c(C)c1OCCC(=O)O)CCC(C)(CCCC(C)CCCC(C)C)O2 (stereo not shown) [TS-5, 3-[2,5,7,8-tetramethyl-2-(4,8-dimethyl-nonyl)-chroman-6-yloxy]propionic acid]
antiproliferative effect on normal prostate epithelial cells (PrEC cells): resistant

Cc1c(C)c2c(c(C)c1OC(=O)CCC(=O)O)CC[C@@](C)(CCC[C@H](C)CCC[C@H](C)CCCC(C)C)O2 [α-tocopheryl succinate, reference compound]
Bad expression [3]: decrease | expression level of Bcl-2 members other than Bad (Bcl-xL, Bcl-2, Bax, Bak, Bid) [3]: did not cause appreciable changes | level of Bak associated with Bcl-xL (Bcl-xL/Bak interactions; 40 μM, 12 h, vs DMSO control): significantly reduced | level of Bak associated with Bcl-2 (Bcl-2/Bak interactions; 40 μM, 12 h, vs DMSO control): significantly reduced | antiproliferative effect on normal prostate epithelial cells (PrEC cells): resistant | IC50 (LNCaP cells; [4]): 15 µM | IC50 (PC-3 cells [2]; [4]): 40 µM | apoptotic death (PC-3 cells [1]): evidenced by DNA fragmentation, cytochrome c release, and PARP cleavage | resistance to induced cell death by ectopic Bcl-xL expression (LNCaP/B3 cells): substantially increased the resistance | IC50 (Bcl-xL; fluorescence polarization, Flu-BakBH3, read-out: IC50, disruption of BH3 domain-mediated interactions (Bak BH3 peptide) with Bcl-xL): 26 ± 2 µM | caspase-9 activation (caspase-9): in a dose-dependent manner | IC50 (Bcl-2): 26 ± 2 µM
